Experimental findings from US20260053861A1, “CELL COMPOSITIONS AND METHODS OF USING THE SAME” (THE REGENTS OF THE UNIVERSITY OF CALIFORNIA, priority 2022, published 2026) are described below.

Where a name gives a salt, the structure may show the parent alone.

For one assay, the system named is hPSC-SCs.
Settings: not given
On to `CC(C)c1c(CN(C)C(C)Cc2ccccc2)n(C)n(-c2ccccc2)c1=O` (stereo not drawn) [Famprofazone], for which the z.score.t is −1.288. Compound `CC(Cc1ccc(O)cc1)NCC(O)c1cc(O)cc(O)c1` (stereo not drawn) [Fenoterol hydrobromide] had a z.score.t of 0.8992. As to `C/C=C1/C[N@+]2(C)CC[C@]34C(=C(C=O)[C@H]1C[C@@H]32)Nc1ccccc14.[Cl-]` [Fluorocurarine chloride], the z.score.t was 1.364. The same measure, in the same setting: the result for `CCCCc1ccc(C(=O)O)nc1` [Fusaric acid] reads 1.345; that for `NCC1(CC(=O)O)CCCCC1` [Gabapentin], −0.496; that for `COc1ccc2c3c1O[C@H]1C[C@@H](O)C=C[C@@]31CCN(C)C2` [Galanthamine hydrobromide], 0.8023. Still for that read-out and setting: the result for `C=C[C@]12CN(C)[C@@H]3[C@H]4CO[C@H](C[C@H]41)[C@]1(C(=O)Nc4ccccc41)[C@@H]32` [Gelsemine] reads 1.601; that for `C[C@@H]1C(=O)O[C@H]2C[C@@]34[C@H]5C[C@@H](C(C)(C)C)[C@]36[C@@H](OC(=O)[C@@H]6O)O[C@@]4(C(=O)O5)[C@]21O` [Ginkgolide A], 1.034; that for `O=C(OCC(O)CO)c1ccccc1Nc1ccnc2cc(Cl)ccc12` (stereo not drawn) [Glafenine hydrochloride], −0.727. `CCC1(c2ccc(N)cc2)CCC(=O)NC1=O` (stereo not drawn) [Glutethimide, para-amino] gave a z.score.t of 0.1149.

The assay is the same for the next values; noted with them: HTS viability of hPSC-SCs in the presence of 30 mM glucose; Prestwick library; Table S4.
As to `COc1cc([C@@H]2c3cc4c(cc3[C@@H](O[C@@H]3O[C@@H]5CO[C@@H](C)O[C@H]5[C@H](O)[C@H]3O)[C@H]3COC(=O)[C@H]23)OCO4)cc(OC)c1O` [Etoposide], the z.score.t is −1.576. For the compound `CC1CC(OC(=O)C(O)c2ccccc2)CC(C)(C)N1C` (stereo not drawn) [Eucatropine hydrochloride], the z.score.t is 0.0568.

On to `COc1c2ccoc2nc2c(OC)c(OCC(O)C(C)(C)O)ccc12` (stereo not drawn) [Evoxine], for which the z.score.t is reported as 0.0116.

For the compound `NC(N)=Nc1nc(CSCCC(N)=NS(N)(=O)=O)cs1` [Famotidine], the z.score.t was found to be 1.191.

For the compound `O=C(O)Cc1ccc(-c2ccccc2)cc1` [Felbinac], the z.score.t is listed as −0.0788. On the same count and under the same terms, next, `CCOC(=O)C1=C(C)NC(C)=C(C(=O)OC)C1c1cccc(Cl)c1Cl` (stereo not drawn) [Felodipine]: 0.006455. With `COC(=O)Nc1nc2ccc(Sc3ccccc3)cc2[nH]1` [Fenbendazole], the z.score.t is recorded as −1.607. Regarding `O=C(O)CCC(=O)c1ccc(-c2ccccc2)cc1` [Fenbufen], the z.score.t worked out at 1.249.

On to `CC(NCCC(c1ccccc1)c1ccccc1)c1ccccc1` (stereo not drawn) [Fendiline hydrochloride], for which the z.score.t is given as −1.478.

On to `CC(C)OC(=O)C(C)(C)Oc1ccc(C(=O)c2ccc(Cl)cc2)cc1` [Fenofibrate], for which the z.score.t is 0.1742.

With `CC(C(=O)O)c1cccc(Oc2ccccc2)c1` (stereo not drawn) [Fenoprofen calcium salt dihydrate], the z.score.t worked out at 0.1244. Regarding `O=C1NCC2(CCN(CCc3ccccc3)CC2)O1` [Fenspiride hydrochloride], the z.score.t was −0.01953. `CC(C)(C(=O)O)c1ccc(C(O)CCCN2CCC(C(O)(c3ccccc3)c3ccccc3)CC2)cc1` (stereo not drawn) [Fexofenadine HCl]: the z.score.t was −0.5086. For the compound `COc1cc(C(=O)OC2CC3CCC(C2)N3C)ccc1O` (stereo not drawn) [Fillalbin], the z.score.t came out at 0.5365. Consider `CC(C)(C)NC(=O)[C@H]1CC[C@H]2[C@@H]3CC[C@H]4NC(=O)C=C[C@]4(C)[C@H]3CC[C@]12C` [Finasteride], for which the z.score.t is −0.9741. Same read-out and setting: the result for `O=C(COc1ccc(Cl)cc1)N1CCN(Cc2ccc3c(c2)OCO3)CC1` [Fipexide hydrochloride] reads 0.5179; that for `Cc1c(-c2ccccc2)oc2c(C(=O)OCCN3CCCCC3)cccc2c1=O` [Flavoxate hydrochloride], 1.21; that for `O=C(NCC1CCCCN1)c1cc(OCC(F)(F)F)ccc1OCC(F)(F)F` (stereo not drawn) [Flecainide acetate], 0.4105. The same measure, in the same setting: the result for `CS(=O)(=O)c1ccc([C@@H](O)[C@@H](CF)NC(=O)C(Cl)Cl)cc1` [Florfenicol] reads 0.5365; that for `Cc1onc(-c2c(F)cccc2Cl)c1C(=O)N[C@@H]1C(=O)N2[C@@H]1SC(C)(C)[C@@H]2C(=O)O` [Flucloxacillin sodium], −1.056. Take `Nc1[nH]c(=O)ncc1F` [Flucytosine]: the z.score.t is listed as −0.05622. In the case of `CC(=O)OCC(=O)[C@@]1(O)CC[C@H]2[C@@H]3CCC4=CC(=O)CC[C@]4(C)[C@@]3(F)[C@@H](O)C[C@@]21C` [Fludrocortisone acetate], the z.score.t stood at 1.278. Take `O=C(O)c1ccccc1Nc1cccc(C(F)(F)F)c1` [Flufenamic acid]: the z.score.t is reported as −1.003. On to `Fc1ccc(C(c2ccc(F)cc2)N2CCN(C/C=C/c3ccccc3)CC2)cc1` [Flunarizine dihydrochloride], for which the z.score.t is listed as −1.898. Turning to `CC1(C)O[C@@H]2C[C@H]3[C@@H]4C[C@H](F)C5=CC(=O)C=C[C@]5(C)[C@H]4[C@@H](O)C[C@]3(C)[C@]2(C(=O)CO)O1` [Flunisolide], the z.score.t came to 1.612.

For the compound `Cc1c(Nc2ncccc2C(=O)O)cccc1C(F)(F)F` [Flunixin meglumine], the z.score.t was 1.117.

On to `CC(=O)OCC(=O)[C@@]12OC(C)(C)O[C@@H]1C[C@H]1[C@@H]3C[C@H](F)C4=CC(=O)C=C[C@]4(C)[C@@]3(F)[C@@H](O)C[C@@]12C` [Fluocinonide], for which the z.score.t is 0.2803.

Turning to `CC(=O)[C@@]1(O)CC[C@H]2[C@@H]3C[C@H](C)C4=CC(=O)C=C[C@]4(C)[C@@]3(F)[C@@H](O)C[C@@]21C` [Fluorometholone], the z.score.t was −0.9741.

Take `CNCCC(Oc1ccc(C(F)(F)F)cc1)c1ccccc1` (stereo not drawn) [Fluoxetine hydrochloride]: the z.score.t is on record as −0.865. Take `OCCN1CCN(CCCN2c3ccccc3Sc3ccc(C(F)(F)F)cc32)CC1` [Fluphenazine dihydrochloride]: the z.score.t was −1.847. Turning to `CC1(C)O[C@@H]2C[C@H]3[C@@H]4C[C@H](F)C5=CC(=O)CC[C@]5(C)[C@H]4[C@@H](O)C[C@]3(C)[C@]2(C(=O)CO)O1` [Flurandrenolide], the z.score.t came out at 0.4741. The same measure, in the same setting: next, `CC(C(=O)O)c1ccc(-c2ccccc2)c(F)c1` (stereo not drawn) [Flurbiprofen]: 1.824; `O=C1NCN(c2ccccc2)C12CCN(CCCC(c1ccc(F)cc1)c1ccc(F)cc1)CC2` [Fluspirilen]: −1.399; `CC(C)C(=O)Nc1ccc([N+](=O)[O-])c(C(F)(F)F)c1` [Flutamide]: 0.5856. Still for that read-out and setting: next, `CCC(=O)O[C@]1(C(=O)SCF)[C@H](C)C[C@H]2[C@@H]3C[C@H](F)C4=CC(=O)C=C[C@]4(C)[C@@]3(F)[C@@H](O)C[C@@]21C` [Fluticasone propionate]: 0.1543; `CC(C)n1c(/C=C/C(O)CC(O)CC(=O)O)c(-c2ccc(F)cc2)c2ccccc21` (stereo not drawn) [Fluvastatin sodium salt]: −0.4538. As for `COCCCC/C(=N\OCCN)c1ccc(C(F)(F)F)cc1` [Fluvoxamine maleate], the z.score.t is listed as 0.03957. As to `Nc1nc2ncc(CNc3ccc(C(=O)N[C@@H](CCC(=O)O)C(=O)O)cc3)nc2c(=O)[nH]1` [Folic acid], the z.score.t was 0.7312. For the compound `Nc1nc(=O)c2c([nH]1)NCC(CNc1ccc(C(=O)N[C@@H](CCC(=O)[O-])C(=O)[O-])cc1)N2C=O.[Ca+2]` (stereo partly drawn) [Folinic acid calcium salt], the z.score.t stood at 0.1244. `O=C(O)c1ccccc1OP(=O)(O)O` [Fosfosal]: the z.score.t worked out at 0.495. On the same count and under the same terms, next, `O=C1OC(CN2CCOCC2)CN1/N=C/c1ccc([N+](=O)[O-])o1` (stereo not drawn) [Furaltadone hydrochloride]: 2.34; `NS(=O)(=O)c1cc(C(=O)O)c(NCc2ccco2)cc1Cl` [Furosemide]: −1.306.

In the case of `CC(=O)O[C@H]1C[C@@]2(C)[C@@H](C[C@@H](O)[C@H]3[C@@]4(C)CC[C@@H](O)[C@@H](C)[C@@H]4CC[C@@]32C)/C1=C(\CCC=C(C)C)C(=O)O` [Fusidic acid sodium salt], the z.score.t is 0.6203.

`Fc1ccc(C(OCCN2CCN(CCCc3ccccc3)CC2)c2ccc(F)cc2)cc1` [GBR 12909 dihydrochloride]: the z.score.t is listed as −1.092. For the compound `COc1ccc(-c2ccc(=N)n(CCCC(=O)O)n2)cc1` [Gabazine], the z.score.t amounted to 1.252. On the same count and under the same terms, next, `CCOC(=O)c1ccc(OC(=O)CCCCCN=C(N)N)cc1.CS(=O)(=O)O` [Gabexate mesilate]: 0.5136; `CC[N+](CC)(CC)CCOc1cccc(OCC[N+](CC)(CC)CC)c1OCC[N+](CC)(CC)CC` [Gallamine triethiodide]: −0.1538; `Nc1nc(O)c2ncn(COC(CO)CO)c2n1` [Ganciclovir]: −0.5992.

As to `Cc1ccc(C)c(OCCCC(C)(C)C(=O)O)c1` [Gemfibrozil], the z.score.t is reported as 0.4486.

For the compound `C=C1C[C@]23C[C@@]1(O)CC[C@H]2[C@@]12C=C[C@H](O)[C@@](C)(C(=O)O1)[C@H]2[C@@H]3C(=O)O` [Gibberellic acid], the z.score.t is reported as −0.3452. As to `COc1ccc(Cl)cc1C(=O)NCCc1ccc(S(=O)(=O)NC(=O)NC2CCCCC2)cc1` [Glibenclamide], the z.score.t is listed as −0.7776. For `Cc1ccc(S(=O)(=O)NC(=O)NN2CC3CCCC3C2)cc1` (stereo not drawn) [Gliclazide], the z.score.t was −0.03629. Still for that read-out and setting: the result for `CCC1=C(C)CN(C(=O)NCCc2ccc(S(=O)(=O)NC(=O)N[C@H]3CC[C@H](C)CC3)cc2)C1=O` [Glimepiride] reads 1.252; that for `Cc1cnc(C(=O)NCCc2ccc(S(=O)(=O)NC(=O)NC3CCCCC3)cc2)cn1` [Glipizide], 1.43; that for `COc1ccc2c(c1)C(=O)N(CCc1ccc(S(=O)(=O)NC(=O)NC3CCCCC3)cc1)C(=O)C2(C)C` [Gliquidone], 2.369. On the same count and under the same terms, next, `C[C@H](CCC(=O)NCC(=O)O)[C@H]1CC[C@H]2[C@@H]3[C@H](O)C[C@@H]4C[C@H](O)CC[C@]4(C)[C@H]3C[C@H](O)[C@]12C` [Glycocholic acid]: −0.8478.
